Laboratory results: patent publication US20050208496A1, “Methods of testing for bronchial asthma or chronic obstructive pulmonary disease” (Genox Research, Inc., priority 2002, published 2005)
Read-outs that look alike come from different tables or passages of the source.

Test system: respiratory epithelial cells
Details: IL-13 vs no stimulation

IL-13: human IL-13 (Peprotech, Inc.) added to the medium at 50 ng/mL to stimulate respiratory epithelial cells
BENE (33331_at) expression change (lot 1 Day 3 IMM): −2.8
CRA (1230_g_at) expression change (lot 1 Day 3 IMM): −2.3
CTSL2 (40717_at) expression change (lot 1 Day 3 IMM): −2.2
DUSP1 (1005_at) expression change (lot 1 Day 3 IMM): −2.4
IGFBP3 (37319_at) expression change (lot 1 Day 3 IMM): −2
IGFBP6 (1736_at) expression change (lot 1 Day 3 IMM): −2.8
MMP9 (31859_at) expression change (lot 1 Day 3 IMM): −7.3
MMP10 (1006_at) expression change (lot 1 Day 3 IMM): −3.4
MSMB (32149_at) expression change (lot 1 Day 3 IMM): −3.7
NDRG1 (36933_at) expression change (lot 1 Day 3 IMM): −2.3
NOTCH3 (38750_at) expression change (lot 1 Day 3 IMM): −3.5
PFTK1 (36502_at) expression change (lot 1 Day 3 IMM): −2.6
PSCA (33792_at) expression change (lot 1 Day 3 IMM): −3.9
SERPINA3 (33825_at) expression change (lot 1 Day 3 IMM): −3.8
SERPINE1 (672_at) expression change (lot 1 Day 3 IMM): −7.7
SERPINE1 (38125_at) expression change (lot 1 Day 3 IMM): −4.2
TSPAN-5 (40990_at) expression change (lot 1 Day 3 IMM): −2.8
AGR2 (38827_at) expression change (lot 1 Day 7 AI): −2.7
AKR1B10 (37482_at) expression change (lot 1 Day 7 AI): −7.5
AKR1C3 (37399_at) expression change (lot 1 Day 7 AI): −4
ANXA10 (32349_at) expression change (lot 1 Day 7 AI): −2.5
APM2 (32527_at) expression change (lot 1 Day 7 AI): −3.8
AREG (34898_at) expression change (lot 1 Day 7 AI): −4.8
BCAS1 (37821_at) expression change (lot 1 Day 7 AI): −3.7
BENE (33331_at) expression change (lot 1 Day 7 AI): −7.3
C4.4A (41641_at) expression change (lot 1 Day 7 AI): −2.5
CRA (1230_g_at) expression change (lot 1 Day 7 AI): −2
DEFB2 (32464_at) expression change (lot 1 Day 7 AI): −4.3
ECM1 (37600_at) expression change (lot 1 Day 7 AI): −4.7
EPHA1 (1108_s_at) expression change (lot 1 Day 7 AI): −3.2
ETFB (36881_at) expression change (lot 1 Day 7 AI): −2
FABP5 (39799_at) expression change (lot 1 Day 7 AI): −4.2
GABRE (34280_at) expression change (lot 1 Day 7 AI): −2
GPNMB (38379_at) expression change (lot 1 Day 7 AI): 3.6
HLA-DPB1 (38095_i_at) expression change (lot 1 Day 7 AI): −4.4
HLA-DPB1 (38096_f_at) expression change (lot 1 Day 7 AI): −2.6
IGFBP3 (1586_at) expression change (lot 1 Day 7 AI): −2.4
IGFBP3 (37319_at) expression change (lot 1 Day 7 AI): −2.7
IGFBP6 (1736_at) expression change (lot 1 Day 7 AI): −7.7
IMPA2 (36496_at) expression change (lot 1 Day 7 AI): −2
MMP9 (31859_at) expression change (lot 1 Day 7 AI): −10.9
MN1 (37283_at) expression change (lot 1 Day 7 AI): −3.2
MSMB (32149_at) expression change (lot 1 Day 7 AI): −11.7
NCALD (38803_at) expression change (lot 1 Day 7 AI): −2.8
NDRG1 (36933_at) expression change (lot 1 Day 7 AI): −3.6
NOTCH3 (38750_at) expression change (lot 1 Day 7 AI): −4.6
PSCA (33792_at) expression change (lot 1 Day 7 AI): −5.8
PTK2B (33804_at) expression change (lot 1 Day 7 AI): −6.4
PTPRZ1 (1364_at) expression change (lot 1 Day 7 AI): −3.7
RARRES1 (33505_at) expression change (lot 1 Day 7 AI): −3.3
RDC1 (34288_at) expression change (lot 1 Day 7 AI): −5.3
RTP801 (39827_at) expression change (lot 1 Day 7 AI): −2
S100A8 (41096_at) expression change (lot 1 Day 7 AI): −6.2
SERPINA3 (33825_at) expression change (lot 1 Day 7 AI): −14.1
SERPINB1 (33305_at) expression change (lot 1 Day 7 AI): −2.3
SERPINB5 (862_at) expression change (lot 1 Day 7 AI): −2.2
SERPINE1 (672_at) expression change (lot 1 Day 7 AI): −7.8
SERPINE1 (38125_at) expression change (lot 1 Day 7 AI): −18.3
STK39 (39120_at) expression change (lot 1 Day 7 AI): −2.9
TSPAN-5 (40990_at) expression change (lot 1 Day 7 AI): −3.6
VRP (38223_at) expression change (lot 1 Day 7 AI): −2.5
c-fos (1916_s_at) expression change (lot 1 Day 7 AI): −2.6
AKR1B10 (37482_at) expression change (lot 1 Day 7 IMM): −6.7
AKR1C3 (37399_at) expression change (lot 1 Day 7 IMM): −2.3
APM2 (32527_at) expression change (lot 1 Day 7 IMM): −6.2
AREG (34898_at) expression change (lot 1 Day 7 IMM): −5.2
BENE (33331_at) expression change (lot 1 Day 7 IMM): −4.7
ECM1 (37600_at) expression change (lot 1 Day 7 IMM): −18.4
FABP5 (39799_at) expression change (lot 1 Day 7 IMM): −3.7
GPNMB (38379_at) expression change (lot 1 Day 7 IMM): 4.9
IGFBP3 (1586_at) expression change (lot 1 Day 7 IMM): −3.1
IGFBP3 (37319_at) expression change (lot 1 Day 7 IMM): −3.1
IGFBP6 (1736_at) expression change (lot 1 Day 7 IMM): −5.4
MMP9 (31859_at) expression change (lot 1 Day 7 IMM): −16
NDRG1 (36933_at) expression change (lot 1 Day 7 IMM): −2.4
NOTCH3 (38750_at) expression change (lot 1 Day 7 IMM): −2.7
PFTK1 (36502_at) expression change (lot 1 Day 7 IMM): −3.2
PTK2B (33804_at) expression change (lot 1 Day 7 IMM): −4.1
RARRES1 (1042_at) expression change (lot 1 Day 7 IMM): −3.5
RARRES1 (33505_at) expression change (lot 1 Day 7 IMM): −2.7
RDC1 (34288_at) expression change (lot 1 Day 7 IMM): −2.2
SEC14L2 (32817_at) expression change (lot 1 Day 7 IMM): −2.9
SERPINA3 (33825_at) expression change (lot 1 Day 7 IMM): −5.9
SERPINB1 (33305_at) expression change (lot 1 Day 7 IMM): −2.1
SERPINB5 (862_at) expression change (lot 1 Day 7 IMM): −2.5
SERPINE1 (672_at) expression change (lot 1 Day 7 IMM): −31.3
SERPINE1 (38125_at) expression change (lot 1 Day 7 IMM): −20.1
STK39 (39120_at) expression change (lot 1 Day 7 IMM): −2
TSPAN-5 (40990_at) expression change (lot 1 Day 7 IMM): −2.8
c-fos (1915_s_at) expression change (lot 1 Day 7 IMM): −4.3
c-fos (1916_s_at) expression change (lot 1 Day 7 IMM): −4.7
AKR1B10 (37482_at) expression change (lot 2 Day 3 AI): −7.1
AKR1C3 (37399_at) expression change (lot 2 Day 3 AI): −2.6
ANXA10 (32349_at) expression change (lot 2 Day 3 AI): −7.5
APM2 (32527_at) expression change (lot 2 Day 3 AI): −2.7
AREG (34898_at) expression change (lot 2 Day 3 AI): −14.6
BCAS1 (37821_at) expression change (lot 2 Day 3 AI): −4.6
BDKRB2 (39310_at) expression change (lot 2 Day 3 AI): −2.4
BENE (33331_at) expression change (lot 2 Day 3 AI): −4.8
CRA (1230_g_at) expression change (lot 2 Day 3 AI): −3.4
CTSL2 (40717_at) expression change (lot 2 Day 3 AI): −3.2
DUSP1 (1005_at) expression change (lot 2 Day 3 AI): −4.3
EPHA1 (1108_s_at) expression change (lot 2 Day 3 AI): −2.8
FABP5 (39799_at) expression change (lot 2 Day 3 AI): −3
GPNMB (38379_at) expression change (lot 2 Day 3 AI): −2.2
IGFBP3 (1586_at) expression change (lot 2 Day 3 AI): −2.9
IGFBP3 (37319_at) expression change (lot 2 Day 3 AI): −3
